Data as given in patent publication US10406175B2, “Polymer-flavonoid conjugate and uses thereof” (Agency for Science, Technology and Research, priority 2014, dated 2019).

Columns and labels:
Assay type in all cases: cell-based, human
MMP-3 = experiment: IL-1ß-induced MMP-3 expression in OA chondrocytes (RT-PCR and ELISA); settings: IL-1ß 5 ng/ml, 24 h; EGCG 10 μM; HA or conjugate at two concentrations (FIGS. 3, 6)
Experimental: (§1) Cryopreserved human osteoarthritis chondrocytes (passage 1) were obtained from Cell Applications, INC. (USA). The cells were thawed and cultured in T75 cell culture flasks using complete growth medium (DMEM/F12 medium supplemented with 10% FBS and 1% penicillin/streptomycin). The cells were maintained at 37° C. and 5% CO2 atmosphere. Growth medium was replaced every 2-3 days and the cells were subcultured at 80% confluency. Only cells at passage 2 and 3 were used in this study. After expansion, the cells were re-differentiated in alginate beads according to previously established protocol with some modifications. Briefly, cells were trypsinized, pelleted and resuspended in 1.2% (w/v) sodium alginate in 0.15 M NaCl. The cell suspension was dispensed through a 210 needle dropwise into gelation solution (102 mM CaCl2, 10 mM HEPES and 0.0005% Tween 20, pH 7.4). Approximately 15 alginate beads were dispensed in 5 ml of gelation solution in a 6-wellplate. After gelation for 10 min, the gelation solution was removed and the alginate beads were washed twice with 5 ml of 0.15 M NaCl. Complete growth medium (5 ml) was then added and the cells were re-differentiated for 8 days in the alginate beads. Medium was changed every 2-3 days. After 8 days, the alginate beads were solubilized in dissolution solution (55 mM EDTA and 10 mM HEPES, pH 7.4).

IL-6 = experiment: IL-1ß-induced IL-6 expression in OA chondrocytes (RT-PCR and ELISA); settings: IL-1ß 5 ng/ml, 24 h; EGCG 10 μM; HA or conjugate at two concentrations (FIGS. 2, 5)
Experimental: as §1

MMP-1 = experiment: IL-1ß-induced MMP-1 expression in OA chondrocytes (RT-PCR and ELISA); settings: IL-1ß 5 ng/ml, 24 h; EGCG 10 μM; HA or conjugate at two concentrations (FIGS. 3, 6)
Experimental: as §1

MMP-13 = experiment: IL-1ß-induced MMP-13 expression in OA chondrocytes (RT-PCR and ELISA); settings: IL-1ß 5 ng/ml, 24 h; EGCG 10 μM; HA or conjugate at two concentrations (FIGS. 3, 6)
Experimental: as §1

TNF-α = experiment: IL-1ß-induced TNF-α expression in OA chondrocytes (RT-PCR and ELISA); settings: IL-1ß 5 ng/ml, 24 h; EGCG 10 μM; HA or conjugate at two concentrations (FIGS. 2, 5)
Experimental: as §1

O=C(O[C@@H]1Cc2c(O)cc(O)cc2O[C@@H]1c1cc(O)c(O)c(O)c1)c1cc(O)c(O)c(O)c1 [EGCG, epigallocatechin gallate]
effectively inhibited: downregulation of IL-1ß-induced MMP-3 gene and protein expression (MMP-3) | downregulation of IL-1ß-induced IL-6 gene and protein expression (IL-6) | downregulation of IL-1ß-induced MMP-1 gene and protein expression (MMP-1) | downregulation of IL-1ß-induced MMP-13 gene and protein expression (MMP-13) | downregulation of IL-1ß-induced TNF-α gene and protein expression (TNF-α)
